Source: US10703755B2, “Substituted purine derivative” (SUMITOMO DAINIPPON PHARMA CO., LTD., priority 2016, dated 2020)
pIC50: −log10 of the molar value.

Molecular target: human TLR7 (Homo sapiens (Human), UniProt Q9NYK1)
Assay: Test for evaluating the inhibition of the activation of human TLR7 (SEAP reporter, TLR7/NF-κB/SEAPorter HEK293 cell)
Format: cell-based
Settings: R-848 200 nmol/L; for pIC50: SEAP reporter; for inhibitory effect against TLR7 in the test for evaluating inhibition of the activation of TLR7: SEAP activity, result in words
Method in brief: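 The readout is secreted alkaline phosphatase under NF-κB response-element control in TLR7/NF-κB/SEAPorter HEK293 cells, which stably express full-length human TLR7. Cells were plated at 5×10^4 per well and grown overnight at 37° C, 5% CO2, in DMEM/10% FBS/blasticidin.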

Chain of human TLR7 (Q9NYK1 27-1049): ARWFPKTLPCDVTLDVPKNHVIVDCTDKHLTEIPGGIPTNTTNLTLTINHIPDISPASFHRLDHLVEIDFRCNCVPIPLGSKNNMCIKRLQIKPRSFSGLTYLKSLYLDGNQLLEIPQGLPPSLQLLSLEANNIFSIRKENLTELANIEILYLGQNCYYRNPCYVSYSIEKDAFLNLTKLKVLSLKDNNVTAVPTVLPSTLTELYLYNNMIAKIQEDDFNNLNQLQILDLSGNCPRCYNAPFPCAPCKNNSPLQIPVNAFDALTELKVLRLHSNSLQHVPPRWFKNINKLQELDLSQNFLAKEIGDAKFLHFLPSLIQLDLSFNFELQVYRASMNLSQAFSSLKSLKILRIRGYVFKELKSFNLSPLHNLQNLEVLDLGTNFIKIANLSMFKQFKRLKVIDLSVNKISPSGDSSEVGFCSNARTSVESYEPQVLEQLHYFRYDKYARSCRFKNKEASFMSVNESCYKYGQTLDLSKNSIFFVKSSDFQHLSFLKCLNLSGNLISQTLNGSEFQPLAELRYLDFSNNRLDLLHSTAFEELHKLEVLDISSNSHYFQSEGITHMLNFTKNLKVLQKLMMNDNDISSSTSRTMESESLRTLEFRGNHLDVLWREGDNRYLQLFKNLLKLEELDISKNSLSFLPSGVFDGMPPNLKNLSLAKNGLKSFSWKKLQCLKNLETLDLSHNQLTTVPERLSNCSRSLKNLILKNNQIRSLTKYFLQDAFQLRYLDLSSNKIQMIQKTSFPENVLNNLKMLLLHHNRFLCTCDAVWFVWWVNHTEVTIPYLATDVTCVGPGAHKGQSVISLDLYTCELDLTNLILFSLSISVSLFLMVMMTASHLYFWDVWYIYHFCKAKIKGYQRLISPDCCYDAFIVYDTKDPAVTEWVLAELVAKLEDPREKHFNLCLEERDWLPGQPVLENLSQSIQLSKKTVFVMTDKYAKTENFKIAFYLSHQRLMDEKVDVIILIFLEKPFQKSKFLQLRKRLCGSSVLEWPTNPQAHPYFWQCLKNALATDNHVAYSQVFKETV

Row | SMILES | pIC50 | inhibitory effect against TLR7 in the test for evaluating inhibition of the activation of TLR7
1 | Cc1nc(N)c2nc(-c3cncc(F)c3)n(Cc3ccc(CN(C)C)cc3)c2n1 [Example 156, 9-{4-[(Dimethylamino)methyl]benzyl}-8-(5-fluoropyridin-3-yl)-2-methyl-9H-purine-6-amine] | 5.30 | 
2 | COCCOc1nc(N)c2nc(-c3cncc(F)c3)n(Cc3cccc(CN(C)C)c3)c2n1 [Example 89] | 5.85 | 
3 | CCCCOc1nc(N)c2nc(-c3ccncc3)n(Cc3ccccc3)c2n1 [Example 4] | 5.11 | 
4 | COc1nc(C)c2nc(-c3cncc(C#N)c3)n(Cc3ccc(O[C@H]4C[C@H]5CC[C@@H](C4)N5)cc3F)c2n1 [Example 436] | 7.43 | potent inhibitory effect against TLR7
5 | CN(C)Cc1ccc(Cn2c(-c3cncc(F)c3)nc3c(N)nc(OCC4CC4)nc32)cc1 [Example 160] | 5.89 | 
6 | COc1nc(C)c2nc(-c3cncc(F)c3)n(Cc3ccc(OCC4CNC4)cc3F)c2n1 [Example 434] | 7.05 | 
7 | COc1nc(C)c2nc(-c3cncc(F)c3)n(Cc3ccc(C4CN5CCC4CC5)cc3F)c2n1 (stereo not shown) [Example 393, 9-[4-(1-azabicyclo[2.2.2]oct-3-yl)-2-fluorobenzyl]-8-(5-fluoropyridin-3-yl)-2-methoxy-6-methyl-9H-purine] |  | potent inhibitory effect against TLR7
8 | CCOc1nc(N)c2nc(-c3cncc(F)c3)n(Cc3ccc(O[C@H]4CN5CCC4CC5)nc3)c2n1 [Example 41] | 6.85 | 
9 | CCOc1nc(N)c2nc(-c3cncc(F)c3)n(Cc3ccc([C@H]4CN5CCC4CC5)cc3)c2n1 [Example 176, 9-{4-[(3S)-1-azabicyclo[2.2.2]oct-3-yl]benzyl}-2-ethoxy-8-(5-fluoropyridin-3-yl)-9H-purine-6-amine] | 7.96 | potent inhibitory effect against TLR7
10 | COc1nc(C)c2nc(-c3cncnc3)n(Cc3ccc(OC4CC5CCC(C4)N5C)cc3F)c2n1 (stereo not drawn) [Example 294, 9-(2-fluoro-4-{[(3-endo)-8-methyl-8-azabicyclo[3.2.1]oct-3-yl]oxy}benzyl)-2-methoxy-6-methyl-8-(pyrimidin-5-yl)-9H-purine] | 7.72 | potent inhibitory effect against TLR7
11 | CCOc1nc(N)c2nc(-c3cncc(F)c3)n(Cc3ccc(C(=O)NCCN(C)C)cc3)c2n1 [Example 145] | 5.68 | 
12 | CCN1C[C@@H]2C[C@H]1CN2Cc1ccc(Cn2c(-c3cncc(C#N)c3)nc3c(C)nc(OC)nc32)c(F)c1 [Example 309, 5-[9-(4-{[(1S,4S)-5-ethyl-2,5-diazabicyclo[2.2.1]hept-2-yl]methyl}-2-fluorobenzyl)-2-methoxy-6-methyl-9H-purin-8-yl]pyridine-3-carbonitrile] | 7.70 | potent inhibitory effect against TLR7
13 | COCCOc1nc(N)c2nc(-c3cncc(C#N)c3)n(Cc3ccc(CN(C)C)cc3)c2n1 [Example 31] | 5.11 | 
14 | COc1nc(C)c2nc(-c3cncc(F)c3)n(Cc3ccc(OCCCN(C)C)cc3F)c2n1 [Example 421] | 7.14 | potent inhibitory effect against TLR7
15 | COc1nc(C)c2nc(-c3cncc(F)c3)n(Cc3ccc(OCC4CN(C)C4)cc3F)c2n1 [Example 286, 9-{2-fluoro-4-[(1-methylazetidin-3-yl)methoxy]benzyl}-8-(5-fluoropyridin-3-yl)-2-methoxy-6-methyl-9H-purine] | 7.59 | potent inhibitory effect against TLR7
16 | CCOc1nc(N)c2nc(-c3cncc(F)c3)n(Cc3ccc(O[C@@H]4CN5CCC4CC5)nc3)c2n1 [Example 40] | 6.92 | 
17 | CCOc1nc(N)c2nc(-c3cncc(F)c3)n(Cc3ccc(CN4C[C@@H]5C[C@H]4CN5)cc3)c2n1 [Example 124] | 6.66 | 
18 | CCOc1nc(N)c2nc(-c3cncc(F)c3)n(Cc3ccc(CN4[C@@H]5CC[C@H]4CN(C)C5)cc3)c2n1 [Example 95] | 7.30 | potent inhibitory effect against TLR7
19 | COc1nc(C)c2nc(-c3cccnn3)n(Cc3ccc(OC4CN5CCC4CC5)cc3F)c2n1 (stereo not shown) [Example 441] | 6.75 | 
20 | COc1nc(C)c2nc(-c3cncc(F)c3)n(Cc3ccc(C4CN5CCC4CC5)cc3F)c2n1 (stereo not shown) [Example 392, 9-[4-(1-azabicyclo[2.2.2]oct-3-yl)-2-fluorobenzyl]-8-(5-fluoropyridin-3-yl)-2-methoxy-6-methyl-9H-purine] |  | potent inhibitory effect against TLR7
21 | CCN1C[C@@H]2C[C@H]1CN2Cc1ccc(Cn2c(-c3cncc(F)c3)nc3c(N)nc(OC)nc32)cc1 [Example 134] | 6.77 | 
22 | CCOc1nc(C)c2nc(-c3cncc(F)c3)n(Cc3ccc(O[C@H]4CN5CCC4CC5)nc3)c2n1 [Example 72] | 7.09 | potent inhibitory effect against TLR7
23 | CCCCOc1nc(N)c2nc(-c3cncc(C)c3)n(Cc3cccc(CN(C)C)c3)c2n1 [Example 85] | 6.10 | 
24 | COc1nc(C)c2nc(-c3cncc(C#N)c3)n(Cc3ccc(O[C@@H]4CN5CCC4CC5)cc3F)c2n1 [Example 322, 5-(9-{4-[(3S)-1-azabicyclo[2.2.2]oct-3-yloxy]-2-fluorobenzyl}-2-methoxy-6-methyl-9H-purin-8-yl)pyridine-3-carbonitrile] | 7.89 | potent inhibitory effect against TLR7
25 | COc1nc(C)c2nc(-c3cncnc3)n(Cc3ccc([C@@H]4CN5CCC4CC5)cc3F)c2n1 [Example 444, 9-{4-[(3R)-1-Azabicyclo[2.2.2]oct-3-yl]-2-fluorobenzyl}-2-methoxy-6-methyl-8-(pyrimidin-5-yl)-9H-purine] | 7.01 | 
26 | CCCCNc1nc(N)c2nc(-c3cncc(OC)c3)n(Cc3ccccc3)c2n1 [Example 26] | 4.73 | 
27 | COc1nc(C)c2nc(-c3cncc(C#N)c3)n(Cc3ccc(OC4CC5CCC(C4)N5C)cc3F)c2n1 (stereo not drawn) [Example 295, 5-[9-(2-fluoro-4-{[(3-endo)-8-methyl-8-azabicyclo[3.2.1]oct-3-yl]oxy}benzyl)-2-methoxy-6-methyl-9H-purin-8-yl]pyridine-3-carbonitrile] | 7.89 | potent inhibitory effect against TLR7
28 | COc1nc(C)c2nc(-c3cncc(F)c3)n(Cc3ccc(O[C@H]4C[C@H]5CC[C@@H](C4)N5C)cc3F)c2n1 [Example 285, 9-(2-fluoro-4-{[(3-endo)-8-methyl-8-azabicyclo[3.2.1]oct-3-yl]oxy}benzyl)-8-(5-fluoropyridin-3-yl)-2-methoxy-6-methyl-9H-purine] | 8.70 | potent inhibitory effect against TLR7

More lines, main results first:

Row | pIC50 | SMILES | inhibitory effect against TLR7 in the test for evaluating inhibition of the activation of TLR7
29 | 6.52 | CCOc1nc(C)c2nc(-c3cncc(F)c3)n(Cc3cnn(CCN4CCCC4)c3)c2n1 [Example 246] | 
30 | 5.77 | CCOc1nc(N)c2nc(-c3cncc(F)c3)n(Cc3ccc(C(=O)NCCN4CCCC4)cc3)c2n1 [Example 146] | 
31 | 6.99 | CCOc1nc(C)c2nc(-c3cncc(F)c3)n(Cc3ccc(CN4CCCC4)cc3)c2n1 [Example 263] | 
32 | 7.72 | CCOc1nc(C)c2nc(-c3cncc(F)c3)n(Cc3cnn(CC4CCCNC4)c3)c2n1 (stereo not shown) [Example 269] | 
33 | 7.57 | COc1nc(C)c2nc(-c3cncc(F)c3)n(Cc3ccc(CN4C[C@@H]5C[C@H]4CN5C)cc3)c2n1 [Example 107, 8-(5-fluoropyridin-3-yl)-2-methoxy-6-methyl-9-(4-{[(1S,4S)-5-methyl-2,5-diazabicyclo[2.2.1]hept-2-yl]methyl}benzyl)-9H-purine] | potent inhibitory effect against TLR7
34 | 7.09 | CCOc1nc(C)c2nc(-c3cncc(F)c3)n(Cc3ccc(C4CCCN4C)cc3)c2n1 (stereo not shown) [Example 170] | 
35 | 6.70 | CCOc1nc(C)c2nc(-c3cncc(F)c3)n(Cc3cnn(CC4CN(C)CCO4)c3)c2n1 (stereo not shown) [Example 273] | 
36 | 7.55 | CCOc1nc(C)c2nc(-c3cncc(F)c3)n(Cc3cnn(CCN4CCN(C)CC4)c3)c2n1 [Example 300] | potent inhibitory effect against TLR7
37 | 7.31 | CCOc1nc(C)c2nc(-c3cncc(F)c3)n(Cc3ccc(C4CCN(C)C4)cc3)c2n1 (stereo not shown) [Example 138] | potent inhibitory effect against TLR7
38 | 7.72 | CCOc1nc(N)c2nc(-c3cncc(F)c3)n(Cc3ccc(CN4C[C@@H]5C[C@H]4CN5CC)cc3)c2n1 [Example 128] | potent inhibitory effect against TLR7
39 | 6.52 | CCCCOc1nc(N)c2nc(-c3cncc(F)c3)n(Cc3cccc(CN4CCOCC4)c3)c2n1 [Example 86] | 
40 | 7.25 | CCOc1nc(N)c2nc(-c3cncc(F)c3)n(Cc3ccc(CN4CC(F)(F)C4)cc3)c2n1 [Example 101] | potent inhibitory effect against TLR7
41 | 7.14 | CCOc1nc(C)c2nc(-c3cncc(F)c3)n(Cc3cnn(CC4CCN(C)C4)c3)c2n1 (stereo not shown) [Example 278] | potent inhibitory effect against TLR7
42 | 5.46 | CCCCOc1nc(N)c2nc(-c3cncc(F)c3)n(Cc3cccc(C(=O)N4CCN(C)CC4)c3)c2n1 [Example 147] | 
43 | 6.80 | CCOc1nc(C)c2nc(-c3cncc(F)c3)n(Cc3ccc(CN4CC(C#N)C4)cc3)c2n1 [Example 116] | 
44 | 6.30 | CCOc1nc(C)c2nc(-c3cncc(F)c3)n(Cc3ccc(C4=CN5CCC4CC5)cn3)c2n1 [Example 352, 9-{[5-(1-Azabicyclo[2.2.2]oct-2-en-3-yl)pyridin-2-yl]methyl}-2-ethoxy-8-(5-fluoropyridin-3-yl)-6-methyl-9H-purine] | 
